Laboratory results published in ChEMBL document CHEMBL1201862, “PubChem BioAssay data set” (2004).
The source made the active and inactive calls.

Legend:
[1] = biological target: Death-associated protein kinase 3 (Homo sapiens, UniProt O43293); type: functional;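 note: measured as one member of a kinome-wide profiling panel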
[2] = biological target: Serine/threonine-protein kinase MRCK alpha (Homo sapiens, UniProt Q5VT25); type: functional
[3] = biological target: Serine/threonine-protein kinase 3 (Homo sapiens, UniProt Q13188); type: functional;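 note: measured as one member of a kinome-wide kinase panel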
[4] = biological target: Serine/threonine-protein kinase Chk2 (Homo sapiens, UniProt O96017); type: functional;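 note: CHEK2 entry within a kinome-wide screening panel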
[5] = biological target: Casein kinase I isoform delta (Homo sapiens, UniProt P48730); type: functional;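 note: measured as one member (CSNK1D) of a kinome panel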
[6] = biological target: Mitogen-activated protein kinase 12 (Homo sapiens, UniProt P53778); type: functional;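 note: measured as one member of a kinome-wide kinase profiling panel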
[7] = biological target: Platelet-derived growth factor receptor beta (Homo sapiens, UniProt P09619); type: functional;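 note: value comes from a kinome panel, with PDGFRB tested as one panel member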
Platelet-derived growth factor receptor beta, sequence (P09619 whole entry): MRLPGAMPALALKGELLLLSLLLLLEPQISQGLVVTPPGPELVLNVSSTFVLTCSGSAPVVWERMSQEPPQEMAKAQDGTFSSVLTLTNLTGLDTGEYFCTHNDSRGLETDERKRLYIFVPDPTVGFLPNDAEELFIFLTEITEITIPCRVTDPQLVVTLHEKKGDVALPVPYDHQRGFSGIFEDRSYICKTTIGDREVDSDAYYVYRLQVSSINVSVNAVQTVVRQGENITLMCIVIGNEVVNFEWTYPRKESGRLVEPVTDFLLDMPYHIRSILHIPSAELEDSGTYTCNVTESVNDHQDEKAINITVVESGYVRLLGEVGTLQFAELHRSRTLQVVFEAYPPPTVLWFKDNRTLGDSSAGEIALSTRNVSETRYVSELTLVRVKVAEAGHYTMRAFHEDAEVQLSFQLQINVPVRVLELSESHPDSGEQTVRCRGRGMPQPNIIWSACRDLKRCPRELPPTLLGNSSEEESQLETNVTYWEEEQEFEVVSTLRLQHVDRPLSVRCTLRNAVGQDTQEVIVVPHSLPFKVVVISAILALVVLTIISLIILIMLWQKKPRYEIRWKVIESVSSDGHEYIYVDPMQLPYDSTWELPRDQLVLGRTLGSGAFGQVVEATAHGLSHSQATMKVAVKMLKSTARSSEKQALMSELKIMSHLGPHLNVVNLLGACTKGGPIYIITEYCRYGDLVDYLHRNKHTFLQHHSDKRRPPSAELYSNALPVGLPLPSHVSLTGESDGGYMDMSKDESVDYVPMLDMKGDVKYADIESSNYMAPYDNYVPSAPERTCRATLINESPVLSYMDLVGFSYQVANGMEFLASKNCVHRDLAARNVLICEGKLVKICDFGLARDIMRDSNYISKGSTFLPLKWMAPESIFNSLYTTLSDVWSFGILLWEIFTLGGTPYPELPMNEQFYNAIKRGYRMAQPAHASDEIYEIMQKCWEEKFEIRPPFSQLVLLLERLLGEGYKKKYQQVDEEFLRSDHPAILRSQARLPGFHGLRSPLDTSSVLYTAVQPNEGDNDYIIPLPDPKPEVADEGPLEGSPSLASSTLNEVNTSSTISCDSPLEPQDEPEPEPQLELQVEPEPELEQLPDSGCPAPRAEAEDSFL

[8] = biological target: Mitogen-activated protein kinase 9 (Homo sapiens, UniProt P45984); type: functional;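 note: value from a kinome panel profiling assay, MAPK9 panel entry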
Mitogen-activated protein kinase 9, sequence (P45984 whole entry): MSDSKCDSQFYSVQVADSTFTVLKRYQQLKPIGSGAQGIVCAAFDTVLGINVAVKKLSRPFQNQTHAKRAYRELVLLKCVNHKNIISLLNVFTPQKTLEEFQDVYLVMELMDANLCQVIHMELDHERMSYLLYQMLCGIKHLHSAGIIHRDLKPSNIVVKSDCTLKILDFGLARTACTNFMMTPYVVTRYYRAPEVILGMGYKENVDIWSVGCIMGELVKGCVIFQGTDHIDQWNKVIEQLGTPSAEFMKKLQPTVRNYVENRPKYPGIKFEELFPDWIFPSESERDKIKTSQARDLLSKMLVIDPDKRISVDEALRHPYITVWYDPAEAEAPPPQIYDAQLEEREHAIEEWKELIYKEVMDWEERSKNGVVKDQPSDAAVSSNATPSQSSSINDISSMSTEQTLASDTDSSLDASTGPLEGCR

[9] = biological target: Insulin receptor (Homo sapiens, UniProt P06213); type: functional;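 note: insulin receptor kinase tested as one member of a kinome-wide kinase panel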
[10] = biological target: Serine/threonine-protein kinase PAK 4 (Homo sapiens, UniProt O96013); type: functional;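 note: value obtained within a kinome profiling panel in which PAK4 was one of the panel members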
Serine/threonine-protein kinase PAK 4, sequence (O96013 whole entry): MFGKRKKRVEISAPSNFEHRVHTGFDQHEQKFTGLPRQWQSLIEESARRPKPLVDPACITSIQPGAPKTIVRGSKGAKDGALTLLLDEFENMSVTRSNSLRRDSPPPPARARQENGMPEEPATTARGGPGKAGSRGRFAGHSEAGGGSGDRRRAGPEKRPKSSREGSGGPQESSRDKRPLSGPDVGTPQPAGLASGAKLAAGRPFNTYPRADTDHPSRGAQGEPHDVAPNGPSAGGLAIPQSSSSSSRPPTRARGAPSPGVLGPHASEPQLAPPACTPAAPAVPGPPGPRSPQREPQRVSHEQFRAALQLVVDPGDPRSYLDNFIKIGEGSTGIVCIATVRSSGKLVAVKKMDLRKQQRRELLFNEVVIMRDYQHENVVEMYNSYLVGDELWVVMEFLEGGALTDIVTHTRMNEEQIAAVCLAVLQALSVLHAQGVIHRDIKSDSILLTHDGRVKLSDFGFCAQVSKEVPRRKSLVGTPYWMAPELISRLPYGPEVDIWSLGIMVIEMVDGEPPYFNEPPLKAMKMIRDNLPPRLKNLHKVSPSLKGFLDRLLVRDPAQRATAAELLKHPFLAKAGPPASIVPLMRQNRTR

[11] = biological target: Protein kinase C gamma type (Homo sapiens, UniProt P05129); type: functional
[12] = biological target: Activin receptor type-1 (Homo sapiens, UniProt Q04771); test: Navigating the Kinome. Panel member name: ACVR1; type: functional
[13] = biological target: 3-phosphoinositide-dependent protein kinase 1 (Homo sapiens, UniProt O15530); type: functional;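 note: value comes from the Navigating the Kinome panel, PDPK1 member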
3-phosphoinositide-dependent protein kinase 1, sequence (O15530 whole entry): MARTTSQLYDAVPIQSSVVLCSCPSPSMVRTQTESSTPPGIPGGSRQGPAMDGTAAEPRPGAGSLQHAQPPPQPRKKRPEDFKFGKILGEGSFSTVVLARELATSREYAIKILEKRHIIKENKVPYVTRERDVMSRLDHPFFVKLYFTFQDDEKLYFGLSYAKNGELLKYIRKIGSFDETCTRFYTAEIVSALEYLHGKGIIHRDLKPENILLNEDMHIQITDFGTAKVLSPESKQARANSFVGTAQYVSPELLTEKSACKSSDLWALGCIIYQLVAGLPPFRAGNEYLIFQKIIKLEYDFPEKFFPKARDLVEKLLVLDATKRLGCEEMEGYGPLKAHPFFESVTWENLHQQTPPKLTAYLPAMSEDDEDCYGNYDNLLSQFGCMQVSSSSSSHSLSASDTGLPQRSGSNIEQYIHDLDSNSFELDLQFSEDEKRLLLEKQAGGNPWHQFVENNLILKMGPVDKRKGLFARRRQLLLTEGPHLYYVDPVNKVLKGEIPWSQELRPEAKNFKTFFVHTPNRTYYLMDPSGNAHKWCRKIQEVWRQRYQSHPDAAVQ

[14] = biological target: Ephrin type-A receptor 2 (Homo sapiens, UniProt P29317); type: functional;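 note: EPHA2 tested as one member of a kinome-wide kinase panel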
[15] = biological target: Tyrosine-protein kinase ITK/TSK (Homo sapiens, UniProt Q08881); type: functional;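 note: affinity for ITK measured as one member of a broad kinase panel profiling binding across the kinome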
[16] = biological target: Calcium/calmodulin-dependent protein kinase type II subunit delta (Homo sapiens, UniProt Q13557); type: functional
[17] = biological target: Mitogen-activated protein kinase kinase kinase 20 (Homo sapiens, UniProt Q9NYL2); type: functional
Mitogen-activated protein kinase kinase kinase 20, sequence (Q9NYL2 whole entry): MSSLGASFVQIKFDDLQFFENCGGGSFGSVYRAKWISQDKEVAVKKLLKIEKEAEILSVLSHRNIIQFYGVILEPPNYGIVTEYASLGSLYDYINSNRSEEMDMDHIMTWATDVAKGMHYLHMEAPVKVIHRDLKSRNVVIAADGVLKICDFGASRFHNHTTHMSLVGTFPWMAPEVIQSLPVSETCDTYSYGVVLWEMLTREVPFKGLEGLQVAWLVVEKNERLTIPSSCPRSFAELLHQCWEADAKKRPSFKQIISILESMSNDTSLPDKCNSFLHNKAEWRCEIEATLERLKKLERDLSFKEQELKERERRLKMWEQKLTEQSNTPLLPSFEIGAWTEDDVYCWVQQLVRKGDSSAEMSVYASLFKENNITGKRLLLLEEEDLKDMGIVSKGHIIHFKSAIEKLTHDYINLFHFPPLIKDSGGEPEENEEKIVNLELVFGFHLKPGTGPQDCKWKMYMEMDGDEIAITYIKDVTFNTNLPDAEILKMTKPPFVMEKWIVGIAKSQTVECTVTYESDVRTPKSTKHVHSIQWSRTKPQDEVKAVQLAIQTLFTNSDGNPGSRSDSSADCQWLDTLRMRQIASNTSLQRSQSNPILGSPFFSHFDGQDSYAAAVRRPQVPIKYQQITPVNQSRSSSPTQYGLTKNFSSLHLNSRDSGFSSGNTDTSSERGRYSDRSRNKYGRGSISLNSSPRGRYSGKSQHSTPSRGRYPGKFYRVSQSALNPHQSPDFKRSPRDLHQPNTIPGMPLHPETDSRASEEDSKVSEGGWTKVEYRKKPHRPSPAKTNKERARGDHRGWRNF

[18] = biological target: Mitogen-activated protein kinase 1 (Homo sapiens, UniProt P28482); type: functional
[19] = biological target: Calcium/calmodulin-dependent protein kinase type II subunit alpha (Homo sapiens, UniProt Q9UQM7); test: Navigating the Kinome. Panel member name: CAMK2A; type: functional
[20] = biological target: Tyrosine-protein kinase HCK (Homo sapiens, UniProt P08631); test: Navigating the Kinome. Panel member name: HCK; type: functional
[21] = biological target: Receptor-type tyrosine-protein kinase FLT3 (Homo sapiens, UniProt P36888); type: functional;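 note: FLT3 was tested as one member of a kinome-wide kinase panel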
Receptor-type tyrosine-protein kinase FLT3, sequence (P36888 whole entry): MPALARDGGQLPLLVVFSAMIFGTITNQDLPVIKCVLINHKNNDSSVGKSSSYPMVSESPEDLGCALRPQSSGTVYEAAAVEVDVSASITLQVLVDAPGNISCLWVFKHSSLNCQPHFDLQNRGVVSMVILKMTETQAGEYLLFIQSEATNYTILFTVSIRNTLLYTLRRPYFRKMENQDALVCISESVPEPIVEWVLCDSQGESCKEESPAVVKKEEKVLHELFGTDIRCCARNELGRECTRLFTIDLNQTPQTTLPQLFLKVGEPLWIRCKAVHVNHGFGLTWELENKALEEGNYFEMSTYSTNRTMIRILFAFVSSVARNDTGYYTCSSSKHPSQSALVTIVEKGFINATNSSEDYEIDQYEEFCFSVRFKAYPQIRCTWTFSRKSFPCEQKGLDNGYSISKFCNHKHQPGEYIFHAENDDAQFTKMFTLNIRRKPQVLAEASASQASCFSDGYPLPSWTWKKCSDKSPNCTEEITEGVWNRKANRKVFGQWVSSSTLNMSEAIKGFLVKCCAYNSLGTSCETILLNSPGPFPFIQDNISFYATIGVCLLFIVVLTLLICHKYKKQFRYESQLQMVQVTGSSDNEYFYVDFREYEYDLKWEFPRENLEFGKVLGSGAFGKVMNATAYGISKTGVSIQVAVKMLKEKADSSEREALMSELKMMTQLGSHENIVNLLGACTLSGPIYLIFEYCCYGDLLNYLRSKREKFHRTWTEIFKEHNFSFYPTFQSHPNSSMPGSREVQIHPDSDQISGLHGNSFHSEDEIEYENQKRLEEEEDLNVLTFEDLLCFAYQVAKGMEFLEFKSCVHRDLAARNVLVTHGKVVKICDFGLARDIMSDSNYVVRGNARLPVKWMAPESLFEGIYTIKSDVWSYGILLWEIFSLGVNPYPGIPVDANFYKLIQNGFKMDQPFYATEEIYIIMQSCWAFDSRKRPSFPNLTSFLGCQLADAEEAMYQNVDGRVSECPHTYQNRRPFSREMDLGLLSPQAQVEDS

[22] = biological target: Protein kinase C delta type (Homo sapiens, UniProt Q05655); type: functional
[23] = biological target: MAP/microtubule affinity-regulating kinase 3 (Homo sapiens, UniProt P27448); type: functional;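 note: MARK3 affinity measured as one member of a kinome panel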
[24] = biological target: MAP kinase-interacting serine/threonine-protein kinase 2 (Homo sapiens, UniProt Q9HBH9); type: functional
[25] = biological target: Dual specificity tyrosine-phosphorylation-regulated kinase 1A (Homo sapiens, UniProt Q13627); type: functional;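 note: measured against DYRK1A as one member of a broad kinome profiling panel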
[26] = biological target: T1, Aurora kinase A (Homo sapiens, UniProt O14965); type: functional;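 note: value from the Navigating the Kinome kinase panel profiling, panel entry STK6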
T1 sequence (O14965 whole entry): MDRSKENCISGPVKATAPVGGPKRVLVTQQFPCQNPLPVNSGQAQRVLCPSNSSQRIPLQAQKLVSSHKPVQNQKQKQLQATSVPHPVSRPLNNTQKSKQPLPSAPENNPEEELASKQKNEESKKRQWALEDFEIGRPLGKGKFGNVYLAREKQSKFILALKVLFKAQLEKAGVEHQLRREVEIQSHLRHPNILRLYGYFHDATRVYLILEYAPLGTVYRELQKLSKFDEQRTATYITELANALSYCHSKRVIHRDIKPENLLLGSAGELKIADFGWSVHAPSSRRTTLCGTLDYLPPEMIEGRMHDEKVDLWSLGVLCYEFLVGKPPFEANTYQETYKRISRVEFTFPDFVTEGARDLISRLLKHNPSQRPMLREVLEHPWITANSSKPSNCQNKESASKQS

[27] = biological target: Tyrosine-protein kinase receptor TYRO3 (Homo sapiens, UniProt Q06418); type: functional;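 note: TYRO3 value obtained as one member of a kinome-wide profiling panel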
[28] = biological target: cAMP-dependent protein kinase catalytic subunit alpha (Homo sapiens, UniProt P17612); type: functional
[29] = biological target: Macrophage colony-stimulating factor 1 receptor (Homo sapiens, UniProt P07333); type: functional;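 note: value comes from the Navigating the Kinome screening panel, CSF1R member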
[30] = biological target: Receptor tyrosine-protein kinase erbB-2 (Homo sapiens, UniProt P04626); test: Navigating the Kinome. Panel member name: ERBB2; type: functional
[31] = biological target: Macrophage-stimulating protein receptor (Homo sapiens, UniProt Q04912); test: Navigating the Kinome. Panel member name: MST1R; type: functional
[32] = C. albicans growth with fluconazole, confirmation, fluorescence, retest (AID 2467); type: functional, cell-based

Death-associated protein kinase 3, sequence (O43293 whole entry): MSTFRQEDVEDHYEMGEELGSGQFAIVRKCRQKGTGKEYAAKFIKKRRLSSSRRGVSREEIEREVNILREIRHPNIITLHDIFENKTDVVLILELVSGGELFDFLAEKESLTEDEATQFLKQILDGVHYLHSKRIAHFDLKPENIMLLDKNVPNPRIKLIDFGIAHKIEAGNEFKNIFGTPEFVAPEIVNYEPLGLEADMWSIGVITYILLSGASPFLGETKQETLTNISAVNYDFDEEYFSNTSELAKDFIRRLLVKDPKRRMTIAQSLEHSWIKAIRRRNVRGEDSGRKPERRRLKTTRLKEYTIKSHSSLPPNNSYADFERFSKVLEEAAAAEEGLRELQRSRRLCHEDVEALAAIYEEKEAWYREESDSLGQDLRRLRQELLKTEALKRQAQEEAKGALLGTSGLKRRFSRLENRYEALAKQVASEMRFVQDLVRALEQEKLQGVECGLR

In the case of `NCCCn1cc(-c2cc(-c3cc4ccccc4s3)c3[nH]ncc3c2)c2nc(N)ncc21`, the Ki [1] is reported as 79.4 nM (active), the Ki [2] is reported as 631 nM (active) and the Ki [3] is reported as 501 nM (active). For the same compound, the Ki [4] was 20 nM (active), the Ki [5] was 126 nM (active) and the Ki [6] was 1260 nM (active). The Ki [7] was > 2000 nM (inactive), the Ki [8] was > 2000 nM (inactive) and the Ki [9] was > 5010 nM (inactive). The Ki [10] was 2510 nM (active), the Ki [11] was 200 nM (active) and the Ki [12] was > 3160 nM (inactive). The Ki [13] was 1.58 nM (active), the Ki [14] was > 3160 nM (inactive) and the Ki [15] was > 1580 nM (inactive). The Ki [16] was 158 nM (active), the Ki [17] was 2510 nM (active) and the Ki [18] was 5010 nM (active). For the same compound, the Ki [19] was > 5010 nM (inactive), the Ki [20] was > 3160 nM (inactive) and the Ki [21] was > 1260 nM (inactive). For the same compound, the Ki [22] was 316 nM (active), the Ki [23] was 63.1 nM (active) and the Ki [24] was 25.1 nM (active). For the same compound, the Ki [25] was 1000 nM (active), the Ki [26] was > 1580 nM (inactive) and the Ki [27] was > 2510 nM (inactive). For the same compound, the Ki [28] was 39.8 nM (active), the Ki [29] was > 2510 nM (inactive) and the Ki [30] was > 1580 nM (inactive). The Ki [31] was > 3980 nM (inactive).
For `CCCn1nc([N+](=O)[O-])c(C(C#N)c2nc3ccccc3s2)c(Cl)c1=O` (configuration not stated), the EC50 [32] was 661 nM (active).
